{"source": "patent US9232796B2", "about": "“Herbicidal compositions comprising 4-amino-3-chloro-5-fluoro-6-(4-chloro-2-fluoro-3-methoxyphenyl) pyridine-2-carboxylic acid or a derivative thereof and acetyl-CoA carboxylase (ACCase) inhibitors” (DOW AGROSCIENCES LLC, priority 2012, dated 2016)", "key": {"[1]": {"system": "CYPES", "assay": "Example V (second) postemergence foliar-applied ternary mixtures, greenhouse, direct seeded rice weeds", "format": "in vivo, Cyperus esculentus L.", "conditions": "28 gai/ha", "description": "(§1) The treated plants and control plants were placed in a greenhouse as described above and watered by sub-irrigation to prevent wash-off of the test compounds. After approximately 3 weeks, the condition of the test plants as compared with that of the untreated plants was determined visually and scored on a scale of 0 to 100 percent where 0 corresponds to no injury or growth inhibition and 100 corresponds to complete kill.\n(§2) Colby's equation was used to determine the herbicidal effects expected from the mixtures (Colby, S. R. 1967. Calculation of the synergistic and antagonistic response of herbicide combinations. Weeds 15:20-22.).\n(§3) The following equation was used to calculate the expected activity of mixtures containing three active ingredients, A, B, and C: Expected=A+B+C−((A×B+A×C+B×C)/100)+(A×B×C/10000)"}, "[2]": {"system": "IPOHE", "assay": "Example V (second) postemergence foliar-applied ternary mixtures, greenhouse, direct seeded rice weeds", "format": "in vivo, Ipomoea hederacea Jacq.", "conditions": "28 gai/ha", "description": "as §1, §2, §3"}, "[3]": {"system": "PHAMI", "assay": "Example IV postemergence foliar-applied, greenhouse, cereal crops weeds", "format": "in vivo, Phalaris minor Retz.", "description": "(§4) Seeds of the desired test plant species were planted in Sun Gro MetroMix® 306 planting mixture, which typically has a pH of 6.0 to 6.8 and an organic matter content of about 30 percent, in plastic pots with a surface area of 103.2 square centimeters (cm^2). […] The plants were grown for 7-36 days in a greenhouse with an approximate 14 hour photoperiod which was maintained at about 18° C. during the day and about 17° C. during the night. Nutrients and water were added on a regular basis and supplemental lighting was provided with overhead metal halide 1000-Watt lamps as necessary. The plants were employed for testing when they reached the second or third true leaf stage.\n(§5) Treatments consisted of the benzyl ester of 4-amino-3-chloro-5-fluoro-6-(4-chloro-2-fluoro-3-methoxy-phenyl)pyridine-2-carboxylic acid (Compound A), formulated as an SC, a second cereal herbicide alone and then both in combination.\n(§6) Other herbicidal components were applied on an active ingredient basis and included acetyl-CoA carboxylase (ACCase)-inhibiting herbicides clodinafop-propargyl, fenoxaprop-P-ethyl, pinoxaden and tralkoxydim.\n(§7) Measured aliquots of benzyl ester of 4-amino-3-chloro-5-fluoro-6-(4-chloro-2-fluoro-3-methoxy-phenyl)pyridine-2-carboxylic acid (Compound A) were placed in 25 milliliter (mL) glass vials and diluted in a volume of 1.25% (v/v) Agri-Dex® crop oil concentrate to obtain stock solutions. Compound requirements are based upon a 12 mL application volume at a rate of 187 liters per hectare (L/ha). […] Formulated compounds were applied to the plant material with an overhead Mandel track sprayer equipped with an 8002E nozzle calibrated to deliver 187 L/ha over an application area of 0.503 square meters (m^2) at a spray height of 18 inches (46 cm) above average plant canopy. Control plants were sprayed in the same manner with the solvent blank.\nas §1, with “20-22 days,” for “approximately 3 weeks,”, “control” for “untreated”, “injury” for “injury or growth inhibition”\nas §2\n(§8) The following equation was used to calculate the expected activity of mixtures containing two active ingredients, A and B: Expected=A+B−(A×B/100)"}, "[4]": {"system": "KCHSC", "assay": "Example IV postemergence foliar-applied, greenhouse, cereal crops weeds", "format": "in vivo, Kochia scoparia (L.) Schrad.", "description": "as §4, §5, §6, §7\nas §1, with “20-22 days,” for “approximately 3 weeks,”, “control” for “untreated”, “injury” for “injury or growth inhibition”\nas §2, §8"}, "[5]": {"system": "APESV", "assay": "Example IV postemergence foliar-applied, greenhouse, cereal crops weeds", "format": "in vivo, Apera spica-venti (L.) Beauv.", "description": "as §4, §5, §6, §7\nas §1, with “20-22 days,” for “approximately 3 weeks,”, “control” for “untreated”, “injury” for “injury or growth inhibition”\nas §2, §8"}, "[6]": {"system": "ECHCO", "assay": "Example V (second) postemergence foliar-applied ternary mixtures, greenhouse, direct seeded rice weeds", "format": "in vivo, Echinochloa colona (L.) Link", "conditions": "115 gai/ha", "description": "as §1, §2, §3"}, "[7]": {"system": "ECHCG", "assay": "Example V (second) postemergence foliar-applied ternary mixtures, greenhouse, direct seeded rice weeds", "format": "in vivo, Echinochloa crus-galli (L.) Beauv.", "conditions": "105 gae/ha", "description": "Seeds or nutlets of the desired test plant species were planted in a soil matrix prepared by mixing a sandy loam or loam soil (e.g., 32 percent silt, 23 percent clay, and 45 percent sand, with a pH of about 6.5 and an organic matter content of about 1.9 percent) and calcareous grit in an 80 to 20 ratio. The soil matrix was contained in plastic pots with a volume of 1 quart and a surface area of 83.6 square centimeters (cm^2). When required to ensure good germination and healthy plants, a fungicide treatment and/or other chemical or physical treatment was applied. The plants were grown for 8-22 days in a greenhouse with an approximate 14 hr. photoperiod which was maintained at about 29° C. during the day and 26° C. during the night. Nutrients (Peters Excel® 15-5-15 5-Ca 2-Mg and iron chelate) were applied in the irrigation solution as needed and water was added on a regular basis. Supplemental lighting was provided with overhead metal halide 1000-Watt lamps as necessary. The plants were employed for testing when they reached the first through fourth true leaf stage.\nTreatments consisted of the benzyl ester of 4-amino-3-chloro-5-fluoro-6-(4-chloro-2-fluoro-3-methoxy-phenyl)pyridine-2-carboxylic acid (Compound A), formulated as an SC (suspension concentrate), an ACCase inhibitor, and a third herbicidal component, each applied alone and in ternary combination. Forms of compound A were applied on an acid equivalent basis.\nThe ACCase inhibitor component was applied on an active ingredient basis and included cyhalofop-R-butyl formulated as Clincher® SF, fenoxaprop-p-ethyl formulated as RiceStar® HT, and profoxydim formulated as Aura® 20EC. Other herbicidal components were applied on an active ingredient or acid equivalent basis depending on the compound and included penoxsulam formulated as Grasp® SC, bentazon sodium formulated as Basagran®, triclopyr […] (TEA) salt formulated as Grandstand® R, bispyribac sodium formulated as Regiment® 80WP, imazamox ammonium formulated as Beyond®, benzobicyclon, quinclorac formulated as Facet® 75DF, glyphosate dimethylammonium (DMA) salt formulated as Durango® DMA, glufosinate ammonium formulated as Ignite® 280, fentrazamide formulated as an emulsifiable concentrate (EC), propyrisulfuron formulated as Zeta One®, and indanofan (technical grade material).\nTreatment requirements were calculated based upon the rates being tested, the concentration of active ingredient or acid equivalent in the formulation, and a 12 mL application volume at a rate of 187 L/ha.\nFor treatments comprised of formulated compounds, measured amounts of compounds were placed individually in 25 mL glass vials and diluted in a volume of 1.25% (v/v) Agri-Dex® crop oil concentrate to obtain 12× stock solutions. […] Application solutions were prepared by adding an appropriate amount of each stock solution (e.g., 1 mL) and diluted to the appropriate final concentrations with the addition of 9 mL of an aqueous mixture of 1.25% (v/v) crop oil concentrate so that the final spray solutions contained 1.25% (v/v) crop oil concentrate.\nAs required, additional water and/or 97:3 v/v acetone/DMSO was added to individual application solutions so that the final acetone and DMSO concentrations of the application solutions being compared were 8.1% and 0.25%, respectively.\nAll stock solutions and applications solutions were visually inspected for compound compatibility prior to application. Spray solutions were applied to the plant material with an overhead Mandel track sprayer equipped with a 8002E nozzles calibrated to deliver 187 L/ha over an application area of 0.503 m^2 at a spray height of 18 inches (46 cm) above average plant canopy height. Control plants were sprayed in the same manner with the solvent blank.\nThe treated plants and control plants were placed in a greenhouse as described above and watered by sub-irrigation to prevent wash-off of the test compounds. […]"}, "[8]": {"system": "LEFCH", "assay": "Example V (second) postemergence foliar-applied ternary mixtures, greenhouse, direct seeded rice weeds", "format": "in vivo, Leptochloa chinensis (L.) Nees", "conditions": "420 gai/ha", "description": "as §1, §2, §3"}}, "data": [{"smiles": "COc1cc(OC)nc(Oc2cccc(Oc3nc(OC)cc(OC)n3)c2C(=O)O)n1", "note": "[Bispyribac sodium]", "values": [{"measurement": "Visual Weed Control (%) - 21 DAA CYPES Obs", "setting": "[1]", "value": 20, "unit": "%"}, {"measurement": "Visual Weed Control (%) - 21 DAA IPOHE Obs", "setting": "[2]", "value": 60, "unit": "%"}]}, {"smiles": "CCOC(=O)[C@@H](C)Oc1ccc(Oc2nc3ccc(Cl)cc3o2)cc1", "note": "[Fenoxaprop-P-ethyl, ethyl(2R)-2-[4-[(6-chloro-2-benzoxazolyl)oxy]phenoxy]propanoate]", "values": [{"measurement": "Visual Weed Control (%) - 21 DAA PHAMI Obs", "setting": "[3]; Fenoxaprop-P-ethyl 23 gai/ha", "value": 10, "unit": "%"}, {"measurement": "Visual Weed Control (%) - 21 DAA PHAMI Obs", "setting": "[3]; Fenoxaprop-P-ethyl 46 gai/ha", "value": 45, "unit": "%"}, {"measurement": "Visual Weed Control (%) - 21 DAA KCHSC Obs", "setting": "[4]; Fenoxaprop-P-ethyl 23 gai/ha", "value": 0, "unit": "%"}, {"measurement": "Visual Weed Control (%) - 21 DAA KCHSC Obs", "setting": "[4]; Fenoxaprop-P-ethyl 46 gai/ha", "value": 0, "unit": "%"}, {"measurement": "Visual Weed Control (%) - 21 DAA APESV Obs", "setting": "[5]; Fenoxaprop-P-ethyl 23 gai/ha", "value": 50, "unit": "%"}, {"measurement": "Visual Weed Control (%) - 21 DAA APESV Obs", "setting": "[5]; Fenoxaprop-P-ethyl 46 gai/ha", "value": 83, "unit": "%"}]}, {"smiles": "CP(=O)(O)CCC(N)C(=O)O", "note": "(centres unmarked) [Glufosinate ammonium]", "values": [{"measurement": "Visual Weed Control (%) - 21 DAA ECHCO Obs", "setting": "[6]", "value": 0, "unit": "%"}]}, {"smiles": "CNC.O=C(O)CNCP(=O)(O)O", "note": "[Glyphosate DMA]", "values": [{"measurement": "Visual Weed Control (%) - 21 DAA ECHCG Obs", "setting": "[7]", "value": 23, "unit": "%"}, {"measurement": "Visual Weed Control (%) - 21 DAA LEFCH Obs", "setting": "[8]", "value": 45, "unit": "%"}]}]}
